Measurements: US10583113B2, “Cromolyn compositions for treatment of pulmonary fibrosis” (Respivant Sciences, GmbH, priority 2016, dated 2020)

Assays:
[1] = Pharmacokinetics of cromolyn sodium in plasma and lung after single intraperitoneal injection; format: in vivo, male BALB/c mice; conditions: single IP injection, 10 mg/kg and 100 mg/kg
Experimental: BALB/c male mice, weighing 22±2 g, were provided by BioLasco Taiwan. All animals were maintained in a well-controlled temperature (20-24° C.) and humidity (30%-70%) environment with 12 hours light/dark cycles. The mice were given free access to a standard lab diet [MFG (Oriental Yeast Co., Ltd., Japan)] and autoclaved tap water.
The solution was administered to the mice by IP injection at concentrations of 10 mg/kg and 100 mg/kg. The dosing volume for both dose strengths was 5 mL/kg.
The mice were sedated under general inhalant anesthesia (3% isoflurane) for blood collection by cardiac puncture. […]
The plasma samples were processed using acetonitrile (ACN) precipitation and analyzed by LC-MS/MS. […] The processed plasma samples were stored at −70° C. until receiving LC-MS/MS analysis, at which time peak areas were recorded, and the concentrations of the test substance in the unknown plasma samples were determined using the respective calibration curve. The reportable linear range of the assay was determined, along with the lower limit of quantitation (LLQ).
Each lung was homogenized in 1.5 mL cold phosphate-buffered saline (PBS) at pH 7.4 for 10 seconds on ice. The lung homogenate was centrifuged at 5,400×g for 15 minutes at 4° C., and the supernatant was subsequently processed using ACN precipitation and analyzed by LC-MS/MS. […]

[2] = available formulations of DSCG, not the compositions of the disclosure; cited from earlier work

SMILES: O=C([O-])c1cc(=O)c2c(OCC(O)COc3cccc4oc(C(=O)O)cc(=O)c34)cccc2o1.[Na+] [cromolyn sodium, disodium 5,5′-(2-hydroxypropane-1,3-diyl)bis(oxy)bis(4-oxo-4H-chromene-2-carboxylate)]
- Exposure of cromolyn sodium in plasma and lungs [1]: Significant exposure
- Bioavailability of the available formulations [2]: approximately 1%
